Experimental data as given in ChEMBL document CHEMBL4811258, “Potent Antimalarials with Development Potential Identified by Structure-Guided Computational Optimization of a Pyrrole-Based Dihydroorotate Dehydrogenase Inhibitor Series” (J Med Chem, 2021).

Experiments:
[1] = Inhibition of Plasmodium falciparum DHODH expressed in Escherichia coli BL21-DE3 using L-dihydroorotate as substrate by steady-state DCIP method
[2] = test system: Plasmodium falciparum; experiment: microbe, parasite or virus in culture; conditions: 3D7, 72 h
[3] = test system: Plasmodium falciparum

Cc1c(-c2n[nH]c3cc(C(F)(F)F)ccc23)c[nH]c1C(=O)NC1CC1
IC50 [1]: 4100 nM | EC50 [2]: 250 nM

CNC(=O)c1cc(C(C)NC(=O)c2[nH]cc(Cc3ccc(C(F)(F)F)nc3)c2C)n[nH]1 (stereo in doubt; form 2)
IC50 [1]: 89000 nM | EC50 [3]: 4800 nM

Cc1c(-c2c[nH]c3cc(C(F)(F)F)ccc23)c[nH]c1C(=O)NCC(F)(F)F
IC50 [1]: 18000 nM | EC50 [2]: 1200 nM

Cc1c(-c2n[nH]c3cc(C(F)(F)F)ccc23)c[nH]c1C(=O)NC(C)c1cc(C(N)=O)[nH]n1 (racemic)
IC50 [1]: 32000 nM | EC50 [2]: 500 nM

Cc1c(Cc2ccc(C(F)(F)F)nc2)c[nH]c1C(=O)NC(C)c1cnn(C)c1 (stereo in doubt; form 2)
EC50 [3]: 350 nM

Cc1c(Cc2ccc(C(F)(F)F)nc2)c[nH]c1C(=O)NC1COCC1O (stereo not drawn)
IC50 [1]: 61000 nM | EC50 [2]: 6400 nM

Cc1c(C2(c3cccc(C(F)(F)F)c3)CC2)c[nH]c1C(=O)NC(C)c1nc[nH]n1 (stereo in doubt; form 2)
IC50 [1]: > 30000 nM | EC50 [3]: 2800 nM

Cc1cc(C(C)NC(=O)c2[nH]cc(-c3n[nH]c4cc(C(F)(F)F)ccc34)c2C)no1 (stereo in doubt; form 1)
IC50 [1]: > 100000 nM | EC50 [3]: > 10000 nM

Cc1[nH]c(C(=O)NC(C)c2nc[nH]n2)c(C)c1Cc1ccc(C(F)(F)F)nc1 (stereo in doubt; form 2)
IC50 [1]: 43000 nM | EC50 [3]: 750 nM

Cc1c(Cc2ccc(F)c(F)c2)c[nH]c1C(=O)NC(C)c1nc[nH]n1 (stereo in doubt; form 2)
IC50 [1]: > 100000 nM | EC50 [3]: > 10000 nM

Cc1c(-c2c[nH]c3nc(C(F)(F)F)ccc23)c[nH]c1C(=O)NC(C)c1nc[nH]n1 (stereo in doubt; form 2)
IC50 [1]: 25000 nM | EC50 [3]: 2000 nM

Cc1cc(C(C)NC(=O)c2[nH]cc(Cc3ccc(C(F)(F)F)nc3)c2C)n[nH]1 (stereo in doubt; form 2)
IC50 [1]: 68000 nM | EC50 [3]: > 10000 nM

Cc1c(C(=O)NC(C)c2nc[nH]n2)[nH]c(Cl)c1Cc1ccc(C(F)(F)F)nc1 (stereo in doubt; form 1)
IC50 [1]: > 100000 nM | EC50 [3]: > 10000 nM

Cc1c(C2(c3ccc(C(F)F)nc3)CC2)c[nH]c1C(=O)NC(C)c1nc[nH]n1 (stereo in doubt; form 2)
IC50 [1]: > 30000 nM | EC50 [3]: > 20000 nM

Cc1c(Cc2ccc(S(=O)(=O)N(C)C)cc2)c[nH]c1C(=O)NC1CC1
IC50 [1]: 1500 nM | EC50 [2]: 700 nM

Cc1c(-c2n[nH]c3cc(C(F)(F)F)ccc23)c[nH]c1C(=O)N1CC(F)(F)C1
IC50 [1]: 3600 nM | EC50 [2]: 480 nM

Cc1[nH]c(C(=O)NC(C)c2cn[nH]c2)c(C)c1Cc1ccc(C(F)(F)F)nc1 (stereo in doubt; form 2)
IC50 [1]: 11000 nM | EC50 [3]: 190 nM

Cc1c(Cc2ccc(F)c(F)c2)c[nH]c1C(=O)NC(C)c1nc[nH]n1 (stereo in doubt; form 1)
IC50 [1]: 400 nM | EC50 [3]: 720 nM

Cc1c(Cc2ccc(C(F)(F)F)nc2C#N)c[nH]c1C(=O)NC(C)c1nc[nH]n1 (racemic)
IC50 [1]: 1900 nM | EC50 [2]: 2300 nM

Cc1c(Cc2ccc(C(F)(F)F)cc2F)c[nH]c1C(=O)NC(C)c1nc[nH]n1 (stereo in doubt; form 2)
IC50 [1]: 36000 nM | EC50 [3]: 5800 nM

Cc1c(Cc2ccc(C(F)(F)F)nc2)c[nH]c1C(=O)NC(C)c1cn[nH]c1 (stereo in doubt; form 2)
IC50 [1]: 6400 nM | EC50 [3]: 370 nM

Cc1cc(C(C)NC(=O)c2[nH]c(C)c(Cc3ccc(C(F)(F)F)nc3)c2C)no1 (stereo in doubt; form 2)
IC50 [1]: 53000 nM | EC50 [3]: > 1000 nM

Cc1cc(C(C)NC(=O)c2[nH]cc(-c3c[nH]c4cc(C(F)(F)F)ccc34)c2C)no1 (stereo in doubt; form 1)
IC50 [1]: > 100000 nM | EC50 [3]: > 1000 nM

Cc1cc(C(C)NC(=O)c2[nH]cc(Cc3ccc(C(F)(F)F)cc3)c2C)no1 (stereo in doubt; form 2)
IC50 [1]: 48000 nM | EC50 [3]: 6200 nM

CNC(=O)c1cc(C(C)NC(=O)c2[nH]cc(C3(c4ccc(C(F)(F)F)nc4)CC3)c2C)n[nH]1 (stereo in doubt; form 1)
IC50 [1]: 390 nM | EC50 [3]: 520 nM

Cc1[nH]c(C(=O)N[C@H](C)c2cn[nH]c2)c(C#N)c1Cc1ccc(C(F)(F)F)nc1 (stereo in doubt; form 1)
IC50 [1]: 42000 nM | EC50 [3]: > 1000 nM

Cc1c(-c2n[nH]c3nc(C(F)(F)F)ccc23)c[nH]c1C(=O)NCC(F)(F)F
IC50 [1]: 3900 nM | EC50 [2]: > 10000 nM

Cc1c(Cc2ccc(C(F)(F)F)nc2)c[nH]c1C(=O)NC(C)c1cc(C(N)=O)[nH]n1 (stereo in doubt; form 2)
IC50 [1]: 33000 nM | EC50 [3]: 16000 nM

COC(=O)c1c(Cc2ccc(C(F)(F)F)nc2)c[nH]c1C(=O)NC1CC1
IC50 [1]: 6400 nM | EC50 [2]: 1400 nM

Cc1cc(C(C)NC(=O)c2[nH]cc(C3(c4ccc(C(F)(F)F)nc4)CC3)c2C)no1 (stereo in doubt; form 2)
IC50 [1]: 80000 nM | EC50 [3]: 1.2 nM

Cc1c(Cc2ccc(C(F)(F)F)nc2)c[nH]c1C(=O)NC1COC1
IC50 [1]: 110 nM | EC50 [2]: 74 nM

CNC(=O)[C@@H](C)NC(=O)c1[nH]cc(Cc2ccc(C(F)(F)F)nc2)c1C
IC50 [1]: 39000 nM | EC50 [2]: 8900 nM

Cc1c(-c2c[nH]c3cc(C(F)(F)F)ccc23)c[nH]c1C(=O)NC1CC1
IC50 [1]: 1600 nM | EC50 [2]: 190 nM

CNC(=O)c1c(Cc2ccc(C(F)(F)F)nc2)c[nH]c1C(=O)NC1CC1
IC50 [1]: 16000 nM | EC50 [2]: 3400 nM

CNC(=O)c1cc(C(C)NC(=O)c2[nH]cc(C3(c4ccc(C(F)(F)F)nc4)CC3)c2C)n[nH]1 (stereo in doubt; form 2)
IC50 [1]: 55000 nM | EC50 [3]: 44 nM

Cc1c(Cc2ccc(C(F)(F)F)nc2)c[nH]c1C(=O)N[C@H](C)CO
IC50 [1]: 2700 nM | EC50 [2]: 2100 nM

Cc1c(C(=O)NC(C)c2nc[nH]n2)[nH]c(Cl)c1Cc1ccc(C(F)(F)F)nc1 (stereo in doubt; form 3)
IC50 [1]: 64000 nM

Cc1c(C2(c3ccc(C(F)(F)F)cc3F)CC2)c[nH]c1C(=O)NC(C)c1nc[nH]n1 (stereo in doubt; form 2)
IC50 [1]: > 100000 nM | EC50 [3]: 410 nM

Cc1c(-c2c[nH]c3cc(C(F)(F)F)ccc23)c[nH]c1C(=O)N1CC(F)(F)C1
IC50 [1]: 16000 nM | EC50 [2]: 620 nM

Cc1c(Cc2ccc(C(F)(F)F)nc2)c[nH]c1C(=O)NC(C)c1cc(C#N)[nH]n1 (stereo in doubt; form 2)
IC50 [1]: 54000 nM | EC50 [3]: 6100 nM

NC(=O)c1c(Cc2ccc(C(F)(F)F)nc2)c[nH]c1C(=O)NC1CC1
IC50 [1]: 4900 nM | EC50 [2]: 2100 nM

Cc1c(Cc2ccc(C(F)(F)F)nc2)c[nH]c1C(=O)NCc1cc[nH]n1
IC50 [1]: 17000 nM | EC50 [2]: 1400 nM

COC1COCC1NC(=O)c1[nH]cc(Cc2ccc(C(F)(F)F)nc2)c1C (stereo not drawn)
IC50 [1]: 17000 nM | EC50 [2]: 1100 nM

CNC(=O)c1cc(C(C)NC(=O)c2[nH]cc(Cc3ccc(C(F)(F)F)nc3)c2C)n[nH]1 (stereo in doubt; form 1)
IC50 [1]: 1000 nM | EC50 [3]: 170 nM

Cc1c(Cc2ccc(C(F)(F)F)nc2)c[nH]c1C(=O)NC(C)c1cc[nH]n1 (racemic)
IC50 [1]: 270 nM | EC50 [2]: 43 nM

Cc1c(C2(c3ccc(C(F)(F)F)c(F)c3)CC2)c[nH]c1C(=O)NC(C)c1nc[nH]n1 (stereo in doubt; form 2)
IC50 [1]: 34000 nM | EC50 [3]: 5400 nM

Cc1c(C2(c3ccc(C(F)(F)F)cc3F)CC2)c[nH]c1C(=O)NC(C)c1nc[nH]n1 (stereo in doubt; form 1)
IC50 [1]: 1200 nM | EC50 [3]: 12000 nM

Cc1c(Cc2ccc(C(F)(F)F)nc2)c[nH]c1C(=O)N[C@H](C)C(N)=O
IC50 [1]: > 100000 nM | EC50 [2]: > 10000 nM

Cc1c(Cc2ccc(C(F)(F)F)nc2)c[nH]c1C(=O)NC(C)c1nc[nH]n1 (stereo in doubt; form 2)
IC50 [1]: > 100000 nM | EC50 [3]: 16000 nM

Cc1c(Cc2cccc(F)c2C#N)c[nH]c1C(=O)NC(C)c1nc[nH]n1 (racemic)
IC50 [1]: 480 nM | EC50 [2]: 1100 nM

Cc1c(-c2n[nH]c3nc(C(F)(F)F)ccc23)c[nH]c1C(=O)N1CC(F)(F)C1
IC50 [1]: 2100 nM | EC50 [2]: > 10000 nM

Cc1cc(C(C)NC(=O)c2[nH]cc(Cc3ccc(C(F)(F)F)nc3)c2C)no1 (stereo in doubt; form 2)
EC50 [3]: 450 nM

Cc1c(Cc2ccc(F)c3ccncc23)c[nH]c1C(=O)NC(C)c1nc[nH]n1 (stereo in doubt; form 2)
IC50 [1]: 23000 nM | EC50 [3]: 2300 nM

Cc1c(C2(c3ccc(C(F)(F)F)nc3)CC2)c[nH]c1C(=O)NC(C)c1cn[nH]c1 (stereo in doubt; form 1)
EC50 [3]: 1300 nM

Cc1c(-c2c[nH]c3nc(C(F)(F)F)ccc23)c[nH]c1C(=O)N1CC(F)(F)C1
IC50 [1]: 110 nM | EC50 [2]: 32 nM

Cc1c(C2(c3ccc(C(F)F)nc3)CC2)c[nH]c1C(=O)NC(C)c1nc[nH]n1 (stereo in doubt; form 1)
IC50 [1]: 150 nM | EC50 [3]: 180 nM

Cc1[nH]c(C(=O)NC(C)c2cnn(C)c2)c(C)c1Cc1ccc(C(F)(F)F)nc1 (stereo in doubt; form 1)
IC50 [1]: > 30000 nM | EC50 [3]: > 10000 nM

Cc1cc(C(C)NC(=O)c2[nH]cc(C3(c4ccc(C(F)(F)F)nc4)CC3)c2C)n[nH]1 (stereo in doubt; form 1)
EC50 [2]: 3300 nM

Cc1cc(C(C)NC(=O)c2[nH]c(C)c(Cc3ccc(C(F)(F)F)nc3)c2C#N)no1 (stereo in doubt; form 1)
IC50 [1]: 3200 nM | EC50 [3]: 1800 nM

Cc1c(-c2c[nH]c3nc(C(F)(F)F)ccc23)c[nH]c1C(=O)NCC(F)(F)F
IC50 [1]: 500 nM | EC50 [2]: 50 nM

Cc1c(C2(c3ccc(C(F)(F)F)nc3)CC2)c[nH]c1C(=O)NC(C)c1cn[nH]c1 (stereo in doubt; form 2)
EC50 [3]: 1.2 nM

Cc1c(C2(c3ccc(C(F)(F)F)nc3)CC2)c[nH]c1C(=O)NC(C)c1cc(C(N)=O)[nH]n1 (stereo in doubt; form 2)
IC50 [1]: 57000 nM | EC50 [3]: 9.4 nM

Cc1c(-c2c[nH]c3nc(C(F)(F)F)ccc23)c[nH]c1C(=O)NC(C)c1nc[nH]n1 (stereo in doubt; form 1)
IC50 [1]: 510 nM | EC50 [3]: 53 nM

Cc1c(C2(c3ccc(C(F)(F)F)nc3)CC2)c[nH]c1C(=O)NC(C)c1cc(C#N)[nH]n1 (stereo in doubt; form 1)
EC50 [2]: 1700 nM

Cc1c(Cc2ccc(C(F)(F)F)nc2)c[nH]c1C(=O)NC(C)c1ncn(C)n1 (racemic)
IC50 [1]: 4000 nM | EC50 [2]: 13000 nM
